In US12492181B2, “Gem-disubstituted piperidine melanocortin subtype-2 receptor (MC2R) antagonists and uses thereof” (Crinetics Pharmaceuticals, Inc., priority 2019, dated 2025):

Target: T1, hMC2 receptor (crude hMC2R membranes from CRE-bla-CHO-K1 cells stably expressing hMC2 receptor and hMRAP accessory protein) (Homo sapiens, UniProt Q01718)
T1 construct: crude membrane fractions
Assay: hMC2 membrane binding assay ([125I]ACTH (1-39) Tyr23, SPA)
Conditions: displacement of 0.2 nM [125I]ACTH (1-39) Tyr23 from hMC2R membranes, 1.5 hours at room temperature; read-out: MC2R binding potency
Method: Crude membrane fractions are prepared from CRE-bla-CHO-K1 cells stably expressing hMC2 receptor and hMRAP accessory protein (Thermo Fisher). The cells are grown to 85-100% confluence on standard tissue culture dishes in GlutaMax DMEM growth media (Gibco) with following additives: 10% dialyzed FBS (Gemini), 0.1 mM NEAA (Gibco), 25 mM HEPES (Gibco), 5 μg/mL blasticidin (Goldbio), 100 μg/mL zeocin (Invitrogen), 600 μg/mL hygromycin (Goldbio). To prepare membranes, cells are scraped and collected in 1× Dulbecco's phosphate buffered saline (Corning) and then pelleted at 1000 RPM's. The cell pellet is reconstituted in membrane preparation buffer (20 mM HEPES, 6 mM MgCl2 and 1 mM EGTA, protease inhibitor tablets (Pierce) adjusted to pH 7.4), homogenized using a dounce homogenizer, and the resulting membrane fraction is pelleted by centrifugation at 12,000 RPM's. The membrane pellet is resuspended in membrane preparation buffer, snap freezed and stored at −80° C. for later use.
Binding Assay for hMC2 Antagonists Protocol:
The hMC2 membrane binding assay utilizes the following components: radiolabel [^125I]ACTH (1-39) Tyr23 (PerkinElmer), wheatgerm agglutinin coated PVT SPA beads (PerkinElmer), crude hMC2R membranes, and compounds. Briefly hMC2R membranes are incubated with SPA beads in binding assay buffer (50 mM HEPES, 5 mM MgCl2, 1 mM CaCl2), 0.20% BSA, protease inhibitor tablets (Pierce) adjusted to pH7.4) prior to assay initiation. […] Assay plates are read using a Top Count NXT and Ki values for compounds are determined using a GraphPad Prism 6 non-linear regression analysis.

T1 sequence (Q01718 whole entry): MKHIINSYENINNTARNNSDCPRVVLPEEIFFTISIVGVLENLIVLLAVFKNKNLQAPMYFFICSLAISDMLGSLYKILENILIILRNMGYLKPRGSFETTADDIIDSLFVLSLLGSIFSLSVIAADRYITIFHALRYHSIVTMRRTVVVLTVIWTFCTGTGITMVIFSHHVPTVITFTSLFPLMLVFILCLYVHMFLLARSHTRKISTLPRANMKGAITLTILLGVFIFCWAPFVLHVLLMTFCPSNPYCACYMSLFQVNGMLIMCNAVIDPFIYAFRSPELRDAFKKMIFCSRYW
T1 sequence (Q8TCY5 whole entry partner): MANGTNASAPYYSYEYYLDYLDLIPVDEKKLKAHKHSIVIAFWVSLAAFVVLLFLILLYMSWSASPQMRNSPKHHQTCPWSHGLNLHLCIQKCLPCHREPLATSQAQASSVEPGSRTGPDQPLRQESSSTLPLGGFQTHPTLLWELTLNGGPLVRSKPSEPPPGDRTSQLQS

Row | SMILES | Ki
1 | CCOc1ncccc1-c1ccc(C2(C(=O)N[C@H]3CCN(C)C3)CCN(c3ccc(C(F)F)cc3C#N)CC2)cn1 [Compound 1-37, 1-[2-cyano-4-(difluoromethyl)phenyl]-4-{2′-ethoxy-[2,3′-bipyridin]-5-yl}-N-[(3S)-1-methylpyrrolidin-3-yl]piperidine-4-carboxamide] | < 10 nM
2 | CCOc1ncccc1-c1ccc(C2(C(=O)N[C@H]3CCN(C)C3)CCN(c3ccc(C#N)cc3C(F)(F)F)CC2)cn1 [Compound 1-38, 1-[4-cyano-2-(trifluoromethyl)phenyl]-4-{2′-ethoxy-[2,3′-bipyridin]-5-yl}-N-[(3S)-1-methylpyrrolidin-3-yl]piperidine-4-carboxamide] | < 10 nM
3 | CCOc1ncccc1-c1ccc(C2(C(=O)N[C@H]3CCN(C)C3)CCN(c3ccc(OC(F)(F)F)cc3C#N)CC2)cn1 [Compound 1-39, 1-[2-cyano-4-(trifluoromethoxy)phenyl]-4-{2′-ethoxy-[2,3′-bipyridin]-5-yl}-N-[(3S)-1-methylpyrrolidin-3-yl]piperidine-4-carboxamide] | < 10 nM
4 | CCOc1ncccc1-c1ccc(C2(C(=O)N[C@H]3CCN(C)C3)CCN(c3ccc(C#N)cc3C#N)CC2)cn1 [Compound 1-40, 1-(2,4-dicyanophenyl)-4-{2′-ethoxy-[2,3′-bipyridin]-5-yl}-N-[(3S)-1-methylpyrrolidin-3-yl]piperidine-4-carboxamide] | < 10 nM
5 | CCOc1ncccc1-c1ccc(C2(C(=O)N[C@H]3CCN(C)C3)CCN(c3ncc(C(F)(F)F)cc3C#N)CC2)cn1 [Compound 1-42, 1-[3-cyano-5-(trifluoromethyl)pyridin-2-yl]-4-{2′-ethoxy-[2,3′-bipyridin]-5-yl}-N-[(3S)-1-methylpyrrolidin-3-yl]piperidine-4-carboxamide] | < 10 nM
6 | CCOc1ncccc1-c1ccc(C2(C(=O)NC[C@H](CO)NC)CCN(c3ccc(C(F)(F)F)cc3C#N)CC2)cn1 [Compound 1-44, 1-[2-cyano-4-(trifluoromethyl)phenyl]-4-{2′-ethoxy-[2,3′-bipyridin]-5-yl}-N-[(2R)-3-hydroxy-2-(methylamino)propyl]piperidine-4-carboxamide] | < 10 nM
7 | CCOc1ncccc1-c1ccc(C2(C(=O)NC[C@H](CO)N(C)C)CCN(c3ccc(C(F)(F)F)cc3C#N)CC2)cn1 [Compound 1-45, 1-[2-cyano-4-(trifluoromethyl)phenyl]-N-[(2R)-2-(dimethylamino)-3-hydroxypropyl]-4-{2′-ethoxy-[2,3′-bipyridin]-5-yl}piperidine-4-carboxamide] | < 10 nM
8 | CCOc1ncccc1-c1ccc(C2(C(=O)NC[C@@H](CO)NC)CCN(c3ccc(C(F)(F)F)cc3C#N)CC2)cn1 [Compound 1-47, 1-[2-cyano-4-(trifluoromethyl)phenyl]-4-{2′-ethoxy-[2,3′-bipyridin]-5-yl}-N-[(2S)-3-hydroxy-2-(methylamino)propyl]piperidine-4-carboxamide] | < 10 nM
9 | CCOc1ncccc1-c1ccc(C2(C(=O)NC[C@@H](CO)N(C)C)CCN(c3ccc(C(F)(F)F)cc3C#N)CC2)cn1 [Compound 1-48, 1-[2-cyano-4-(trifluoromethyl)phenyl]-N-[(2S)-2-(dimethylamino)-3-hydroxypropyl]-4-{2′-ethoxy-[2,3′-bipyridin]-5-yl}piperidine-4-carboxamide] | < 10 nM
10 | CCOc1ncccc1-c1cnc(C2(C(=O)N[C@@H]3CCN(C)C3)CCN(c3ccc(C(F)(F)F)cc3C#N)CC2)cn1 [Compound 1-51, 1-[2-cyano-4-(trifluoromethyl)phenyl]-4-[5-(2-ethoxypyridin-3-yl)pyrazin-2-yl]-N-[(3R)-1-methylpyrrolidin-3-yl]piperidine-4-carboxamide] | < 10 nM
11 | CCOc1ncccc1-c1ccc(C2(C(=O)N[C@H]3CCN(C)C3)CCN(c3ccc(C(F)(F)F)cc3C#N)CC2)nn1 [Compound 1-56, 1-[2-cyano-4-(trifluoromethyl)phenyl]-4-[6-(2-ethoxypyridin-3-yl)pyridazin-3-yl]-N-[(3S)-1-methylpyrrolidin-3-yl]piperidine-4-carboxamide] | < 10 nM
12 | CCOc1ncccc1-c1ccc(C2(C(=O)N[C@@H]3CCN(C)C3)CCN(c3ccc(C(F)(F)F)cc3C#N)CC2)nn1 [Compound 1-57, 1-[2-cyano-4-(trifluoromethyl)phenyl]-4-[6-(2-ethoxypyridin-3-yl)pyridazin-3-yl]-N-[(3R)-1-methylpyrrolidin-3-yl]piperidine-4-carboxamide] | < 10 nM
13 | CCOc1ncccc1-c1cnc(C2(C(=O)N[C@H]3CCN(C)C3)CCN(c3ccc(C(F)(F)F)cc3C#N)CC2)cn1 [Compound 1-58, 1-[2-cyano-4-(trifluoromethyl)phenyl]-4-[5-(2-ethoxypyridin-3-yl)pyrazin-2-yl]-N-[(3S)-1-methylpyrrolidin-3-yl]piperidine-4-carboxamide] | < 10 nM

The next lines start with the values.

Row | Ki | SMILES
14 | < 10 nM | CN1CC[C@@H](NC(=O)C2(c3ccc(-c4ccnn4C)nc3)CCN(c3ccc(C(F)(F)F)cc3C#N)CC2)C1 [Compound 1-43, 1-[2-cyano-4-(trifluoromethyl)phenyl]-4-[6-(1-methyl-1H-pyrazol-5-yl)pyridin-3-yl]-N-[(3R)-1-methylpyrrolidin-3-yl]piperidine-4-carboxamide]
15 | < 10 nM | COc1ccccc1-c1ccc(C2(C(=O)N[C@@H]3CCN(C)C3)CCN(c3ccc(C(F)(F)F)cc3C#N)CC2)cn1 [Compound 1-52, 1-[2-cyano-4-(trifluoromethyl)phenyl]-4-[6-(2-methoxyphenyl)pyridin-3-yl]-N-[(3R)-1-methylpyrrolidin-3-yl]piperidine-4-carboxamide]
16 | 10 to 100 nM | CN1CC[C@@H](NC(=O)C2(c3ccc(-c4cccc5c4OCC5)nc3)CCN(c3ccc(C(F)(F)F)cc3C#N)CC2)C1 [Compound 1-53, 1-[2-cyano-4-(trifluoromethyl)phenyl]-4-[6-(2,3-dihydro-1-benzofuran-7-yl)pyridin-3-yl]-N-[(3R)-1-methylpyrrolidin-3-yl]piperidine-4-carboxamide]
17 | 10 to 100 nM | CN1CC[C@@H](NC(=O)C2(c3ccc(-c4cccc5ccoc45)nc3)CCN(c3ccc(C(F)(F)F)cc3C#N)CC2)C1 [Compound 1-54, 4-[6-(1-benzofuran-7-yl)pyridin-3-yl]-1-[2-cyano-4-(trifluoromethyl)phenyl]-N-[(3R)-1-methylpyrrolidin-3-yl]piperidine-4-carboxamide]
18 | < 10 nM | CN1CC[C@@H](NC(=O)C2(c3ccc(-c4ccccc4CO)nc3)CCN(c3ccc(C(F)(F)F)cc3C#N)CC2)C1 [Compound 1-55, 1-[2-cyano-4-(trifluoromethyl)phenyl]-4-{6-[2-(hydroxymethyl)phenyl]pyridin-3-yl}-N-[(3R)-1-methylpyrrolidin-3-yl]piperidine-4-carboxamide]
19 | < 10 nM | CCOc1ncccc1-c1ccc(C2(C(=O)N[C@H]3CCN(C)C3)CCN(c3ccc(C(C)(F)F)cc3C#N)CC2)cn1 [Compound 1-59, 1-[2-cyano-4-(1,1-difluoroethyl)phenyl]-4-{2′-ethoxy-[2,3′-bipyridin]-5-yl}-N-[(3S)-1-methylpyrrolidin-3-yl]piperidine-4-carboxamide]
20 | < 10 nM | CCc1ccccc1-c1ccc(C2(C(=O)N[C@@H]3CCN(C)C3)CCN(c3ccc(C(F)(F)F)cc3C#N)CC2)cn1 [Compound 1-60, 1-[2-cyano-4-(trifluoromethyl)phenyl]-4-[6-(2-ethylphenyl)pyridin-3-yl]-N-[(3R)-1-methylpyrrolidin-3-yl]piperidine-4-carboxamide]
21 | < 10 nM | CN1CC[C@@H](NC(=O)C2(c3ccc(-c4cccc(F)c4F)nc3)CCN(c3ccc(C(F)(F)F)cc3C#N)CC2)C1 [Compound 1-61, 1-[2-cyano-4-(trifluoromethyl)phenyl]-4-[6-(2,3-difluorophenyl)pyridin-3-yl]-N-[(3R)-1-methylpyrrolidin-3-yl]piperidine-4-carboxamide]
22 | < 10 nM | CCn1nccc1-c1ccc(C2(C(=O)N[C@@H]3CCN(C)C3)CCN(c3ccc(C(F)(F)F)cc3C#N)CC2)cn1 [Compound 1-62, 1-[2-cyano-4-(trifluoromethyl)phenyl]-4-[6-(1-ethyl-1H-pyrazol-5-yl)pyridin-3-yl]-N-[(3R)-1-methylpyrrolidin-3-yl]piperidine-4-carboxamide]
23 | < 10 nM | CCCOc1ccccc1-c1ccc(C2(C(=O)N[C@@H]3CCN(C)C3)CCN(c3ccc(C(F)(F)F)cc3C#N)CC2)cn1 [Compound 1-63, 1-[2-cyano-4-(trifluoromethyl)phenyl]-N-[(3R)-1-methylpyrrolidin-3-yl]-4-[6-(2-propoxyphenyl)pyridin-3-yl]piperidine-4-carboxamide]
24 | < 10 nM | CN1CC[C@@H](NC(=O)C2(c3ccc(-c4cccc(F)c4)nc3)CCN(c3ccc(C(F)(F)F)cc3C#N)CC2)C1 [Compound 1-64, 1-[2-cyano-4-(trifluoromethyl)phenyl]-4-[6-(3-fluorophenyl)pyridin-3-yl]-N-[(3R)-1-methylpyrrolidin-3-yl]piperidine-4-carboxamide]
